Source: patent US7186831B2, “5-halo-2-alkyl[1,2,4]triazolo[1,5-a]pyrimidin-7-amines” (priority 2001, dated 2007)

Assay: log P by HPLC
Type: physicochemical
Conditions: EEC directive 79/831 Annex V. A8 by HPLC (gradient method, acetonitrile/0.1% aqueous phosphoric acid)

Row | SMILES | logP
1 | CCCN(CC1CCCCO1)c1c(-c2c(F)cccc2F)c(Cl)nc2nc(C)nn12 (stereo not shown) [compound 346] | 3.95
2 | Cc1nc2nc(Cl)c(-c3ccc(F)cc3F)c(NC3CCCC(C(F)(F)F)C3)n2n1 (stereo not shown) [compound 349] | 3.52
3 | Cc1nc2nc(Cl)c(-c3c(F)cccc3F)c(N(C)CC(C)C)n2n1 [compound 335] | 3.37
4 | C[C@H](Nc1c(-c2ccc(F)cc2F)c(Cl)nc2nc(C3CC3)nn12)C(F)(F)F (single isomer, unassigned) [compound 490] | 3.52
5 | Cc1ccc(Nc2c(-c3ccc(F)cc3F)c(Cl)nc3nc(C4CC4)nn23)cc1 [compound 521] | 3.6
6 | CC(C)Nc1c(-c2ccc(F)cc2Cl)c(Cl)nc2nc(C3CC3)nn12 [compound 503] | 3.5
7 | C=C(C)CN(CC)c1c(-c2c(F)cccc2Cl)c(Cl)nc2nc(C3CC3)nn12 [compound 449] | 4.61
8 | Cc1nc2nc(Cl)c(-c3ccccc3F)c(NCC3CC3)n2n1 [compound 393] | 2.72
9 | Cc1nc2nc(Cl)c(-c3ccccc3F)c(NOCc3ccccc3)n2n1 [compound 363] | 2.93
10 | Cc1nc2nc(Cl)c(-c3ccc(F)cc3F)c(N3CCCCC3C)n2n1 (stereo not shown) [compound 285] | 3.7
11 | CN(CC1CC1(Cl)Cl)c1c(-c2c(F)cc(F)cc2F)c(Cl)nc2nc(C3CC3)nn12 (stereo not shown) [compound 509] | 4.26
12 | Cc1nc2nc(Cl)c(-c3ccc(F)cc3F)c(N3CC(C)OC(C)C3)n2n1 (stereo not shown) [compound 455] | 2.94

Next, values leading:

Row | logP | SMILES
13 | 3.39 | CC1=CCCN(c2c(-c3c(F)cccc3F)c(Cl)nc3nc(C)nn23)C1 [compound 317]
14 | 3.75 | Cc1nc2nc(Cl)c(-c3ccc(F)cc3F)c(N3CCC(C)CC3)n2n1 [compound 287]
15 | 3.99 | CC1CCCN1c1c(-c2ccccc2Cl)c(Cl)nc2nc(C3CC3)nn12 (stereo not shown) [compound 498]
16 | 3.37 | Cc1nc2nc(Cl)c(-c3ccccc3F)c(N3CCC(C(F)(F)F)CC3)n2n1 [compound 392]
17 | 3.31 | C=C(C)CNc1c(-c2c(F)cccc2Cl)c(Cl)nc2nc(C3CC3)nn12 [compound 483]
18 | 2.43 | Cc1nc2nc(Cl)c(-c3c(F)cccc3F)c(N(C)CC3OCCO3)n2n1 [compound 332]
19 | 2.3 | Cc1nc2nc(Cl)c(-c3c(F)cc(F)cc3F)c(NC3CC3F)n2n1 (stereo not shown) [compound 439]
20 | 3.43 | Cc1nc2nc(Cl)c(-c3ccccc3F)c(NOCc3ccc(C(F)(F)F)cc3)n2n1 [compound 365]
21 | 4.27 | C=C(C)CN(C)c1c(-c2c(F)cc(F)cc2F)c(Cl)nc2nc(C3CC3)nn12 [compound 469]
22 | 2.54 | C#CCN(C)c1c(-c2c(F)cccc2F)c(Cl)nc2nc(C)nn12 [compound 331]
23 | 3.11 | Cc1nc2nc(Cl)c(-c3ccccc3F)c(NC3CCCC3)n2n1 [compound 385]
24 | 3.91 | CCCN(CC1CC1)c1c(-c2ccc(F)cc2F)c(Cl)nc2nc(C)nn12 [compound 356]
25 | 3 | CCOC(=O)CN(c1c(-c2c(F)cccc2F)c(Cl)nc2nc(C)nn12)C1CC1 [compound 440]

Same assay, conditions: HPLC

Row | chromatographic logP | SMILES
26 | 4.43 | Fc1cc(F)c(-c2c(Cl)nc3nc(C(F)(F)F)nn3c2N2CCC(C(F)(F)F)CC2)c(F)c1 [Example 1]

Same assay, conditions: HPLC, gradient method, acetonitrile/0.1% aqueous phosphoric acid; EEC directive 79/831 Annex V. A8

Row | SMILES | logP
27 | Cc1nc2nc(Cl)c(-c3c(F)cccc3Cl)c(NCC#N)n2n1 [compound 253] | 2.11
28 | CCc1nc2nc(Cl)c(-c3c(F)cc(F)cc3F)c(N3CCCCC3)n2n1 [compound 73] | 3.94
29 | CC(C)=NN(CC(C)C)c1c(-c2c(F)cccc2F)c(Cl)nc2nc(C3CC3)nn12 [compound 787] | 4.21
30 | CCC(C)Nc1c(-c2ccc(F)cc2Cl)c(Cl)nc2nc(C3CC3)nn12 (stereo not shown) [compound 623] | 3.9
31 | C=C(C)CNc1c(-c2c(F)cc(F)cc2F)c(Cl)nc2nc(C)nn12 [compound 16] | 2.76
32 | CCN(CC)c1c(-c2ccc(F)cc2F)c(Cl)nc2nc(C3CC3)nn12 [compound 597] | 3.73
33 | CCCN(CC1CC1)c1c(-c2ccc(F)cc2F)c(Cl)nc2nc(C3CC3)nn12 [compound 598] | 4.53
34 | Cc1nc2nc(Cl)c(-c3c(F)cccc3Cl)c(NC(C)C(C)C)n2n1 (stereo not shown) [compound 688] | 3.43
35 | Fc1cc(F)c(-c2c(Cl)nc3nc(C(F)(F)F)nn3c2N2CCSCC2)c(F)c1 [compound 110] | 4.09
36 | Cc1nc2nc(Cl)c(-c3ccc(F)cc3Cl)c(NCC(F)F)n2n1 [compound 697] | 2.54
37 | Cc1nc2nc(Cl)c(-c3c(F)cccc3Cl)c(NC(C)C(F)(F)F)n2n1 (stereo not shown) [compound 132] | 3.01
38 | C=CCONc1c(-c2c(F)cccc2F)c(Cl)nc2nc(C)nn12 [compound 140] | 2.38
39 | CCNc1c(-c2c(F)cc(F)cc2F)c(Cl)nc2nc(CC)nn12 [compound 91] | 2.78
40 | Cc1nc2nc(Cl)c(-c3c(F)cc(F)cc3F)c(N3CCC(C(F)(F)F)CC3)n2n1 [compound 67] | 3.6
41 | Cc1nc2nc(Cl)c(-c3c(F)cc(F)cc3F)c(NC(C)(C)C(F)(F)F)n2n1 [compound 88] | 3.7
42 | Fc1ccc(-c2c(Cl)nc3nc(C(F)(F)F)nn3c2NCCC(F)(F)F)c(F)c1 [compound 529] | 3.7
43 | CN(CCC#N)c1c(-c2ccc(F)cc2F)c(Cl)nc2nc(C3CC3)nn12 [compound 718] | 2.79
44 | C=C(C)CN(C)c1c(-c2ccc(F)cc2F)c(Cl)nc2nc(C3CC3)nn12 [compound 670] | 4.05
45 | C=C(C)CN(CC)c1c(-c2ccc(F)cc2F)c(Cl)nc2nc(C)nn12 [compound 96] | 3.73
46 | Cc1nc2nc(Cl)c(-c3c(F)cccc3F)c(N(C)CC#N)n2n1 [compound 564] | 2.18
47 | CN(C)c1c(-c2ccc(F)cc2F)c(Cl)nc2nc(C3CC3)nn12 [compound 722] | 3.06
48 | COCCN(C)c1c(-c2ccc(F)cc2F)c(Cl)nc2nc(C(F)(F)F)nn12 [compound 545] | 3.73
49 | CN(C)CCN(C)c1c(-c2ccc(F)cc2F)c(Cl)nc2nc(C(F)(F)F)nn12 [compound 538] | 1.77

More lines, now with the values ahead:

Row | logP | SMILES
50 | 3.28 | Cc1nc2nc(Cl)c(-c3ccccc3Cl)c(NC3CCCC3)n2n1 [compound 213]
51 | 4.67 | CC1(C)CCN(c2c(-c3ccc(F)cc3F)c(Cl)nc3nc(C4CC4)nn23)CC1 [compound 615]
52 | 4.34 | CC1CCN(c2c(-c3c(F)cccc3F)c(Cl)nc3nc(C4CC4)nn23)CC1 [compound 681]
53 | 3.22 | C=C(C)CNc1c(-c2ccc(F)cc2F)c(Cl)nc2nc(C3CC3)nn12 [compound 657]
54 | 3.18 | Fc1ccc(-c2c(Cl)nc3nc(C4CC4)nn3c2N2CCOCC2)c(Cl)c1 [compound 636]
55 | 3.53 | Fc1cc(F)c(-c2c(Cl)nc3nc(C(F)(F)F)nn3c2NC2CC2)c(F)c1 [compound 35]
56 | 2.83 | Cc1nc2nc(Cl)c(-c3c(F)cc(F)cc3F)c(N3CCCCN3)n2n1 [compound 692]
57 | 4 | CC(C)(C)CNc1c(-c2ccc(F)cc2F)c(Cl)nc2nc(C3CC3)nn12 [compound 646]
58 | 3.4 | Cc1nc2nc(Cl)c(-c3ccc(F)cc3F)c(NCC(C)(C)C)n2n1 [compound 193]
59 | 3.07 | OC1CCCN(c2c(-c3ccc(F)cc3F)c(Cl)nc3nc(C(F)(F)F)nn23)C1 (stereo not shown) [compound 799]
60 | 4.59 | CC1CCN(c2c(-c3c(F)cccc3Cl)c(Cl)nc3nc(C4CC4)nn23)CC1 [compound 706]
61 | 3.9 | CC(C)(C)CNc1c(-c2c(F)cccc2F)c(Cl)nc2nc(C3CC3)nn12 [compound 762]
62 | 2.64 | COCCN(C)c1c(-c2ccccc2Cl)c(Cl)nc2nc(C)nn12 [compound 222]
63 | 3.1 | Cc1nc2nc(Cl)c(-c3ccc(F)cc3F)c(N(C)Cc3ccco3)n2n1 [compound 204]
64 | 2.95 | Cc1nc2nc(Cl)c(-c3c(F)cccc3Cl)c(N3CCCC3)n2n1 [compound 251]
65 | 3.23 | Fc1cccc(F)c1-c1c(Cl)nc2nc(C3CC3)nn2c1N1OC2CCC1C2 (stereo not shown) [compound 743]
66 | 3.31 | Cc1nc2nc(Cl)c(-c3ccc(F)c(Cl)c3)c(N(N)CC(C)C)n2n1 [compound 131]

Row | logP | SMILES
67 | 2.52 | CCCNc1c(-c2c(F)cccc2F)c(Cl)nc2nc(C)nn12 [compound 172]
68 | 2.54 | CON(C)c1c(-c2c(F)cccc2F)c(Cl)nc2nc(C)nn12 [compound 143]
69 | 3.44 | Cc1nc2nc(Cl)c(-c3c(F)cc(F)cc3F)c(NC(C)C(=O)OC(C)(C)C)n2n1 (stereo not shown) [compound 126]
70 | 3.77 | CC(Nc1c(-c2ccc(F)cc2Cl)c(Cl)nc2nc(C3CC3)nn12)C(F)(F)F (single isomer, unassigned) [compound 768]
71 | 4 | Cc1nc2nc(Cl)c(-c3c(F)cccc3F)c(NC(C)C3CCCCC3)n2n1 (stereo not shown) [compound 185]
72 | 2.43 | Cc1nc2nc(Cl)c(-c3c(F)cc(F)cc3F)c(N3CCOCC3)n2n1 [compound 89]
73 | 3.82 | CCCNc1c(-c2c(F)cc(F)cc2F)c(Cl)nc2nc(C(F)(F)F)nn12 [compound 106]
74 | 4.45 | Fc1ccc(-c2c(Cl)nc3nc(C(F)(F)F)nn3c2N2CCCCC2)c(F)c1 [compound 809]
75 | 3.63 | Cc1nc2nc(Cl)c(-c3ccccc3Cl)c(N3CCC(C(F)(F)F)CC3)n2n1 [compound 232]
76 | 2.22 | CCONc1c(-c2c(F)cccc2F)c(Cl)nc2nc(C)nn12 [compound 136]
77 | 3.81 | CC(NNc1c(-c2ccc(F)cc2Cl)c(Cl)nc2nc(C3CC3)nn12)C1CC1 (stereo not shown) [compound 620]
78 | 4.52 | CCCCN(CC)c1c(-c2ccc(F)cc2F)c(Cl)nc2nc(C3CC3)nn12 [compound 596]
79 | 3.14 | Cc1nc2nc(Cl)c(-c3c(F)cccc3Cl)c(NCC(C)C)n2n1 [compound 248]
80 | 3.25 | Fc1cc(F)c(-c2c(Cl)nc3nc(C4CC4)nn3c2NCC(F)(F)F)c(F)c1 [compound 672]
81 | 2.56 | Cc1nc2nc(Cl)c(-c3ccc(F)cc3F)c(N(C)CC3OCCO3)n2n1 [compound 202]
82 | 2.7 | CC(Nc1c(-c2ccc(Cl)cc2Cl)c(Cl)nc2nc(C3CC3)nn12)C(=O)O (stereo not shown) [compound 774]
